Assay results from US20250171438A1 (Agios Pharmaceuticals, Inc., priority 2022, published 2025).

biological target: T1, human PAH with the R408W mutation (Homo sapiens, UniProt P00439, R408W); experiment: Cell Based Phenylalanine Flux Assay; details: A375 cells expressing human R408W PAH; 24 hrs compound incubation; 13C-Tyrosine by LC-MS; average where tested multiple times; read-out: AC50
T1 construct: expressed in transfected cells
T1 sequence (P00439 1-452 R408W): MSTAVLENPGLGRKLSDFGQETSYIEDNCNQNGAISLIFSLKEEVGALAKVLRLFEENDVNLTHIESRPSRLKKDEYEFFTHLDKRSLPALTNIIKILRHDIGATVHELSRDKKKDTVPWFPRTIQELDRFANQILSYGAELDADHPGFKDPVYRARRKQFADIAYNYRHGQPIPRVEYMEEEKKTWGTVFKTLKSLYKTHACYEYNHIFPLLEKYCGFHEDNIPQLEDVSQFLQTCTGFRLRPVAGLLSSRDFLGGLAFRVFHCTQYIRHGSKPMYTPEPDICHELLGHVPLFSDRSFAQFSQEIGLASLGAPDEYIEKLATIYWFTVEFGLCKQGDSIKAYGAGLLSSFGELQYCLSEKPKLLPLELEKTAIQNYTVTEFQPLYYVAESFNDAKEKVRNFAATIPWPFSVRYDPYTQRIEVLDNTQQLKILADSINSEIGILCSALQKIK

First: O=C(c1cnn2ccccc12)N1CCc2[nH]cnc2[C@@H]1c1nc2cccc(F)c2[nH]1 [Example 991, (R)-(4-(7-fluoro-1H-benzo[d]imidazol-2-yl)-6,7-dihydro-1H-imidazo[4,5-c]pyridin-5(4H)-yl)(pyrazolo[1,5-a]pyridin-3-yl)methanone]
Second: O=C(c1cnn2ccc(Br)cc12)N1CCc2[nH]cnc2[C@H]1c1nc2ccc(Br)cc2[nH]1 [Example 997, (S)-(4-(6-bromo-1H-benzo[d]imidazol-2-yl)-6,7-dihydro-1H-imidazo[4,5-c]pyridin-5(4H)-yl)(5-bromopyrazolo[1,5-a]pyridin-3-yl)methanone]
The AC50 of the first is higher: greater than 5000 nM for the first, 1000 to 5000 nM for the second.

Going from `Cc1ncoc1C(=O)N1CCc2[nH]cnc2[C@@H]1c1nc2ccccc2[nH]1` [Example 992, (R)-(4-(1H-benzo[d]imidazol-2-yl)-6,7-dihydro-1H-imidazo[4,5-c]pyridin-5(4H)-yl)(4-methyloxazol-5-yl)methanone] to `Cc1ncoc1C(=O)N1CCc2[nH]cnc2[C@H]1c1nc2ccccc2[nH]1` [Example 993, (S)-(4-(1H-benzo[d]imidazol-2-yl)-6,7-dihydro-1H-imidazo[4,5-c]pyridin-5(4H)-yl)(4-methyloxazol-5-yl)methanone], the AC50 falls from greater than 5000 nM to less than 500 nM.

Compared with `O=C(c1ocnc1C(F)(F)F)N1CCc2[nH]cnc2[C@H]1c1nc2ccccc2[nH]1` [Example 994, (S)-(4-(1H-benzo[d]imidazol-2-yl)-6,7-dihydro-1H-imidazo[4,5-c]pyridin-5(4H)-yl)(4-(trifluoromethyl)oxazol-5-yl)methanone], `O=C(CCc1ncc(Cl)s1)N1CCc2[nH]cnc2[C@H]1c1nc2ccccc2[nH]1` [Example 996, (S)-1-(4-(1H-benzo[d]imidazol-2-yl)-1,4,6,7-tetrahydro-5H-imidazo[4,5-c]pyridin-5-yl)-3-(5-chlorothiazol-2-yl)propan-1-one] is higher in AC50: less than 500 nM for the first, 1000 to 5000 nM for the second.

Compared with `O=C(c1oc(-c2ccccn2)nc1C1CC1)N1CCc2[nH]cnc2[C@H]1c1nc2ccccc2[nH]1` [Example 995, (S)-(4-(1H-benzo[d]imidazol-2-yl)-6,7-dihydro-1H-imidazo[4,5-c]pyridin-5(4H)-yl)(4-cyclopropyl-2-(pyridin-2-yl)oxazol-5-yl)methanone], `O=C(c1nc2ccccc2o1)N1CCc2[nH]cnc2[C@H]1c1nc2ccccc2[nH]1` [Example 999, (S)-(4-(1H-benzo[d]imidazol-2-yl)-6,7-dihydro-1H-imidazo[4,5-c]pyridin-5(4H)-yl)(benzo[d]oxazol-2-yl)methanone] is higher in AC50: 500 to 1000 nM for the first, 1000 to 5000 nM for the second.

First: O=C(c1cnn2ccc(Br)cc12)N1CCc2[nH]cnc2[C@@H]1c1nc2ccc(Br)cc2[nH]1 [Example 998, (R)-(4-(6-bromo-1H-benzo[d]imidazol-2-yl)-6,7-dihydro-1H-imidazo[4,5-c]pyridin-5(4H)-yl)(5-bromopyrazolo[1,5-a]pyridin-3-yl)methanone]
Second: O=C(CC1CC1)N1CCc2[nH]cnc2[C@@H]1c1nc2ccccc2[nH]1 [Example 1000, (R)-1-(4-(1H-benzo[d]imidazol-2-yl)-6,7-dihydro-1H-imidazo[4,5-c]pyridin-5(4H)-yl)-2-cyclopropylethanone]
The AC50 of the first is higher: greater than 5000 nM for the first, 1000 to 5000 nM for the second.

First: O=C(c1nc2ccccc2s1)N1CCc2[nH]cnc2[C@H]1c1nc2ccccc2s1 [Example 1001, (S)-benzo[d]thiazol-2-yl(4-(benzo[d]thiazol-2-yl)-6,7-dihydro-1H-imidazo[4,5-c]pyridin-5(4H)-yl)methanone]
Second: O=C(c1nc2ccccc2s1)N1CCc2[nH]cnc2[C@@H]1c1nc2ccccc2s1 [Example 1002, (R)-benzo[d]thiazol-2-yl(4-(benzo[d]thiazol-2-yl)-6,7-dihydro-1H-imidazo[4,5-c]pyridin-5(4H)-yl)methanone]
The AC50 of the first is lower: 500 to 1000 nM for the first, 1000 to 5000 nM for the second.

First: O=C(CCc1nccs1)N1CCc2[nH]cnc2[C@H]1c1nc2ccccc2s1 [Example 1003]
Second: O=C(CCc1nccs1)N1CCc2nc[nH]c2[C@@H]1c1nc2ccccc2s1 [Example 1004, (R)-1-(4-(benzo[d]thiazol-2-yl)-6,7-dihydro-3H-imidazo[4,5-c]pyridin-5(4H)-yl)-3-(thiazol-2-yl)propan-1-one]
The AC50 of the first is lower: 500 to 1000 nM for the first, 1000 to 5000 nM for the second.
